Test results as given in ChEMBL document CHEMBL5665443, “Enzyme Inhibitor Single Concentration assay results for EUbOPEN Chemogenomics Library” (2024).

What was measured:
[1] = molecular target: T1, Adenine DNA glycosylase (Homo sapiens) (UniProt Q9UIF7); settings: Hit No;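 note: human MUTYH activity read as 594 nm fluorescence from cleavage and release of a quenched DNA duplex, coupled with APE1 for strand incision, lower signal meaning inhibition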
T1 sequence (whole entry): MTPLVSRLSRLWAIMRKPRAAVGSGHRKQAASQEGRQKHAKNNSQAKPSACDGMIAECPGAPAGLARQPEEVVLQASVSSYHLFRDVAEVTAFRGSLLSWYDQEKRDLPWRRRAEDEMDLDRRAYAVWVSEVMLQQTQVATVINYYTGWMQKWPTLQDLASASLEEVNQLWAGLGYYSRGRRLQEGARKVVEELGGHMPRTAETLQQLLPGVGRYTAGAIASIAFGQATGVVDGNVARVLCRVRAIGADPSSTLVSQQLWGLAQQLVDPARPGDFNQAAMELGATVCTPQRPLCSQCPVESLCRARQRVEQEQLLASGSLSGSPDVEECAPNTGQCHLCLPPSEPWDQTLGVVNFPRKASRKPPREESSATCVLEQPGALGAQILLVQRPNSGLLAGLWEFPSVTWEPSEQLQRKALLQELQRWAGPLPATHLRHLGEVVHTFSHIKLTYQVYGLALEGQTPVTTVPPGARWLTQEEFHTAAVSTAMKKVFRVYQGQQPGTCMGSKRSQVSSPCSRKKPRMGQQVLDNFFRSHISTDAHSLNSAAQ
Description: Inhibition of MUTYH by quantifying inhibition of MUTYH-mediated cleavage and dissociation of quenched duplex DNA oligonucleotides, measured as fluorescence at 594 nm. To generate a functional strand incision and increase turn-over this assay is coupled to APE1.

[2] = molecular target: T2, Endonuclease 8-like 2 (Homo sapiens) (UniProt Q969S2); settings: Compound Concentration 10.0 uM, Hit No;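 note: fluorescence at 594 nm reports NEIL2 cutting and release of a quenched double-stranded DNA oligo substrate, reduced signal read as inhibition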
T2 sequence (whole entry): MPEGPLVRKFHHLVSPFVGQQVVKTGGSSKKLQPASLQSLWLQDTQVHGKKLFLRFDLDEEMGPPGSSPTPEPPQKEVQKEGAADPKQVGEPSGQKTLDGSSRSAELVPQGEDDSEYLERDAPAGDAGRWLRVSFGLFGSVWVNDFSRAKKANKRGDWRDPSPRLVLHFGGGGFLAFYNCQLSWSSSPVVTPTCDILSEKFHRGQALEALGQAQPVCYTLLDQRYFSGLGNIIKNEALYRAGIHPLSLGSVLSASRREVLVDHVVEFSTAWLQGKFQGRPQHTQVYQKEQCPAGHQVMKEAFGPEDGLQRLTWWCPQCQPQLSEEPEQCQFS
Description: Inhibition of NEIL2 by quantifying inhibition of NEIL2-mediated cleavage and dissociation of quenched duplex DNA oligonucleotides, measured as fluorescence at 594 nm.

[3] = molecular target: N-glycosylase/DNA lyase (Homo sapiens) (UniProt O15527);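 note: OGG1 cleavage of a quenched duplex DNA oligonucleotide, coupled to APE1 for strand incision, read as fluorescence at 594 nm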
Chain of N-glycosylase/DNA lyase (Homo sapiens) (O15527 whole entry): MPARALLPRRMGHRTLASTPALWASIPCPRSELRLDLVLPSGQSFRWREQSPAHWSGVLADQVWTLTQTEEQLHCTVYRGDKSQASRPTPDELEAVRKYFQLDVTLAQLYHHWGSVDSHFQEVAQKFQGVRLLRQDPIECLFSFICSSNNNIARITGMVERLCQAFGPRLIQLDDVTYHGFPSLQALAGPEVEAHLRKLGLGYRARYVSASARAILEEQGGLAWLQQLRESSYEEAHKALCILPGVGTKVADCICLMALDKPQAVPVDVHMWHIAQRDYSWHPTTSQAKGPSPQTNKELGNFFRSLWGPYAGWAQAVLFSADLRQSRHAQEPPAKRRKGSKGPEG
Description: Inhibition of OGG1 by quantifying inhibition of OGG1-mediated cleavage and dissociation of quenched duplex DNA oligonucleotides, measured as fluorescence at 594 nm. To generate a functional strand incision and increase turn-over this assay is coupled to APE1.

[4] = molecular target: T3, Single-strand selective monofunctional uracil DNA glycosylase (Homo sapiens) (UniProt Q53HV7); settings: Hit No;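 note: enzymatic SMUG1 assay coupled with APE1, reading fluorescence at 594 nm released when a quenched double-stranded DNA oligonucleotide substrate is cleaved and separated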
T3 sequence (whole entry): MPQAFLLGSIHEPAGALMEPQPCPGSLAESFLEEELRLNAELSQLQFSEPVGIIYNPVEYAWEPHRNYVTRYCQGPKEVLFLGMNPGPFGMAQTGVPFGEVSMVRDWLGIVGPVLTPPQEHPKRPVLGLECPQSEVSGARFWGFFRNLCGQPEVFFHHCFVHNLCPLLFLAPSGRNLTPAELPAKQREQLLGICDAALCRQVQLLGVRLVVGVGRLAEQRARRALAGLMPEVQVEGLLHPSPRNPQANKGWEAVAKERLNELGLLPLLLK
Description: Inhibition of SMUG1 by quantifying inhibition of SMUG1-mediated cleavage and dissociation of quenched duplex DNA oligonucleotides, measured as fluorescence at 594 nm. To generate a functional strand incision and increase turn-over this assay is coupled to APE1.

[5] = molecular target: Methyl-CpG-binding domain protein 4 (Homo sapiens) (UniProt O95243); settings: Hit No;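 note: MBD4 activity read as fluorescence at 594 nm from cleavage and release of a quenched duplex DNA oligonucleotide, with APE1 coupled to incise the strand and raise turnover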
Chain of Methyl-CpG-binding domain protein 4 (Homo sapiens) (O95243 whole entry, the tested form may be a part): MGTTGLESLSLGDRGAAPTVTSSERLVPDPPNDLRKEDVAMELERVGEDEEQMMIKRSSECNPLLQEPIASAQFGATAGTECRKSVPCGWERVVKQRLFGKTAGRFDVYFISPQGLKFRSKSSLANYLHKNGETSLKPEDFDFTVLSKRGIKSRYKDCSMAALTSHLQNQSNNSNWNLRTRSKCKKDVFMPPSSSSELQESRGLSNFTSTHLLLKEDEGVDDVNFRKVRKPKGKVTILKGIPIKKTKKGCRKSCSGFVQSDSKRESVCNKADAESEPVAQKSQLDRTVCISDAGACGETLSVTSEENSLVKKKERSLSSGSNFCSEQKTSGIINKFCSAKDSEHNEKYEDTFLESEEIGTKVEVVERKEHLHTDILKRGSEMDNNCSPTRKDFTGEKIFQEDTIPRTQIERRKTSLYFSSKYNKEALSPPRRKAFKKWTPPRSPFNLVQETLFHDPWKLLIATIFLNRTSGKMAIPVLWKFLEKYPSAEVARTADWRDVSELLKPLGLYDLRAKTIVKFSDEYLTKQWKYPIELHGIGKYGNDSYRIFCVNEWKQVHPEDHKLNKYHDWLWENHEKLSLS
Description: Inhibition of MBD4 by quantifying inhibition of MBD4-mediated cleavage and dissociation of quenched duplex DNA oligonucleotides, measured as fluorescence at 594 nm. To generate a functional strand incision and increase turn-over this assay is coupled to APE1.

[6] = molecular target: Uracil-DNA glycosylase (Homo sapiens) (UniProt P13051); settings: Hit No;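 note: UNG excision on a quenched double-stranded DNA oligo probe, with APE1 added for strand incision and turnover, read as fluorescence at 594 nm as strands separate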
Chain of Uracil-DNA glycosylase (Homo sapiens) (P13051 whole entry): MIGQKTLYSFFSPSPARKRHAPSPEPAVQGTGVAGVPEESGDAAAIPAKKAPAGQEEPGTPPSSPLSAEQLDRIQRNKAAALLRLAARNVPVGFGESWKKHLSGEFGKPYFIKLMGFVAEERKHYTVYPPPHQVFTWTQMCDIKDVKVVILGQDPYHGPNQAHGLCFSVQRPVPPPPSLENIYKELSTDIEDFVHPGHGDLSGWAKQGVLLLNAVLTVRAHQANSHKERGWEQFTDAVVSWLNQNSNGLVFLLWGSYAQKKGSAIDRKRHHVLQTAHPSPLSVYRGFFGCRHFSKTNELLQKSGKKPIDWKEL
Description: Inhibition of UNG by quantifying inhibition of UNG-mediated cleavage and dissociation of quenched duplex DNA oligonucleotides, measured as fluorescence at 594 nm. To generate a functional strand incision and increase turn-over this assay is coupled to APE1.

[7] = molecular target: G/T mismatch-specific thymine DNA glycosylase (Homo sapiens) (UniProt Q13569); settings: Hit No;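 note: human TDG cleavage of quenched duplex DNA oligonucleotides coupled to APE1, strand release read as fluorescence at 594 nm, inhibition of TDG activity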
Chain of G/T mismatch-specific thymine DNA glycosylase (Homo sapiens) (Q13569 whole entry): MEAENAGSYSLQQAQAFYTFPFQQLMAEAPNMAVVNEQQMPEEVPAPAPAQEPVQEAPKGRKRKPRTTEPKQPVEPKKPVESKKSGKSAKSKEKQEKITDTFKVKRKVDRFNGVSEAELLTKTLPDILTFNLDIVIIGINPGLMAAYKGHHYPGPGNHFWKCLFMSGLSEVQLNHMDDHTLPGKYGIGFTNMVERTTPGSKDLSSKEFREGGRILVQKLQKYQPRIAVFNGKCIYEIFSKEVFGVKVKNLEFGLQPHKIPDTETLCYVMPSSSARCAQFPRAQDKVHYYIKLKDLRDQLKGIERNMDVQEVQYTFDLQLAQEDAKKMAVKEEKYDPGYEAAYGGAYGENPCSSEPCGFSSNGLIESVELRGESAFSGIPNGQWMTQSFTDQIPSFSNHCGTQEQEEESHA
Description: Inhibition of TDG by quantifying inhibition of TDG-mediated cleavage and dissociation of quenched duplex DNA oligonucleotides, measured as fluorescence at 594 nm. To generate a functional strand incision and increase turn-over this assay is coupled to APE1.

[8] = molecular target: T4, Endonuclease III-like protein 1 (Homo sapiens) (UniProt P78549); settings: Hit No;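 note: enzyme assay tracking NTHL1 cutting and release of a quenched double-stranded DNA oligo substrate, read as fluorescence at 594 nm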
T4 sequence (whole entry): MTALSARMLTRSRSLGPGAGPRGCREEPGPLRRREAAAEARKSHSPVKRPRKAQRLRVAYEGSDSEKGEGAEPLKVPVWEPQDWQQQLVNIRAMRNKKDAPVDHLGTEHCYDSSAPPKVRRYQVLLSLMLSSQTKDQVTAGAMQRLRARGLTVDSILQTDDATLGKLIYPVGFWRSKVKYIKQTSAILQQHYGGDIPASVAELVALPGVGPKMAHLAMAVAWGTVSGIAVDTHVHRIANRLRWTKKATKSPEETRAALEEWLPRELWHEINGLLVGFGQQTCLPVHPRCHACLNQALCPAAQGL
Description: Inhibition of NTHL1 by quantifying inhibition of NTHL1-mediated cleavage and dissociation of quenched duplex DNA oligonucleotides, measured as fluorescence at 594 nm.

[9] = molecular target: Endonuclease 8-like 1 (Homo sapiens) (UniProt Q96FI4); settings: Hit No;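 note: fluorescence at 594 nm from quenched duplex DNA oligonucleotides released by NEIL1 cleavage and strand separation, reported as reduction of this enzyme activity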
Chain of Endonuclease 8-like 1 (Homo sapiens) (Q96FI4 whole entry): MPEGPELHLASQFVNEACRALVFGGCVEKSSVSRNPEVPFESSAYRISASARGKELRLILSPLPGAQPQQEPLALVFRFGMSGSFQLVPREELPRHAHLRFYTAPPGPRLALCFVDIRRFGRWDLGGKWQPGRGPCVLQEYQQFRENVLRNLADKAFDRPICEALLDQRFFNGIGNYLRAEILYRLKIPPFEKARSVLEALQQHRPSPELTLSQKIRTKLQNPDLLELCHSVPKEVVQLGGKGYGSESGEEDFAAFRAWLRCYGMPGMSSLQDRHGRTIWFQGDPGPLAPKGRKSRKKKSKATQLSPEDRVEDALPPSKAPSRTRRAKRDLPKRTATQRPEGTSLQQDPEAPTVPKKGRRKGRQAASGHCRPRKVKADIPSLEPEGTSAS
Description: Inhibition of NEIL1 by quantifying inhibition of NEIL1-mediated cleavage and dissociation of quenched duplex DNA oligonucleotides, measured as fluorescence at 594 nm.

[10] = Compound Concentration 10.0 uM, Hit No
[11] = Compound Concentration 1.0 uM, Hit No

| SMILES | inhibition ([1]; Compound Concentration 10.0 uM) | inhibition [2] | inhibition [3, 10] | inhibition ([4]; Compound Concentration 10.0 uM) | inhibition ([5]; Compound Concentration 10.0 uM) | inhibition ([6]; Compound Concentration 10.0 uM) | inhibition ([7]; Compound Concentration 10.0 uM) | inhibition ([8]; Compound Concentration 10.0 uM) | inhibition ([3]; Compound Concentration 10.0 uM, Hit Yes) | inhibition ([9]; Compound Concentration 10.0 uM) | inhibition ([1]; Compound Concentration 1.0 uM) | inhibition [3, 11] | inhibition ([9]; Compound Concentration 1.0 uM) | inhibition ([4]; Compound Concentration 1.0 uM) | inhibition ([5]; Compound Concentration 1.0 uM) | inhibition ([6]; Compound Concentration 1.0 uM) | inhibition ([7]; Compound Concentration 1.0 uM) | inhibition ([8]; Compound Concentration 1.0 uM) |
| --- | --- | --- | --- | --- | --- | --- | --- | --- | --- | --- | --- | --- | --- | --- | --- | --- | --- | --- |
| COc1nc2ccc([C@@](O)(c3ccc(Cl)cc3)c3cncn3C)cc2c(Cl)c1Cc1ccc(-n2cccn2)cc1 | 6.4% | -3.55% | 14.3% | 16.6% | 64.5% | 9.26% | 42.9% | -3.26% |  |  |  |  |  |  |  |  |  |  |
| CCS(=O)(=O)c1cc2cc(C[C@](O)(CC(C)(C)c3ccc(F)cc3C(N)=O)C(F)(F)F)[nH]c2cn1 | -1.09% | -8.14% | -0.262% | 15.9% | 51.2% | -6.06% | 97.5% | 0.685% |  |  |  |  |  |  |  |  |  |  |
| CC(=O)Nc1c(C(C)=O)c(=O)n(C)c2nc(-c3ccc(Cl)cc3Cl)c(-c3ccc(Cl)cc3)cc12 | 22.8% | 5.63% | 2.2% | 9.09% | 61% | 1.63% | 47.2% | -6.55% |  |  |  |  |  |  |  |  |  |  |
| Cn1cc(C(=O)O)c2ccc(N3CCC(OCc4c(-c5c(Cl)cccc5Cl)noc4C4CC4)CC3)cc21 | 2.96% | 0.531% | 24% | -2.05% | 64.1% | -3.65% | 99.9% | 8.57% |  |  |  |  |  |  |  |  |  |  |
| CCC(=O)N[C@@H]1CC[C@H](C(=O)N(C)c2ccc(-c3nc4ccccc4o3)cc2)C1 | -7.15% | 4.61% | -5.03% | 5.39% | 54.4% | 1.95% | 37.2% | 3.97% |  |  |  |  |  |  |  |  |  |  |
| O=C1CCc2cc(Nc3cc(OC4CCOCC4)c([N+](=O)[O-])cc3Cl)ccc2N1 | 12.7% | 4.87% | 46.7% | 24.3% | 65.2% | 4.09% | 79.3% | 5.94% |  |  |  |  |  |  |  |  |  |  |
| COc1nc2ccc([C@@](O)(c3ccccc3)C3CCN(C(C)=O)CC3)cc2c(Cl)c1Cc1ccc(-n2cccn2)cc1 | 5.36% | -7.63% | 10.5% | 22.3% | 64.6% | 10.2% | 48.5% | -1.29% |  |  |  |  |  |  |  |  |  |  |
| COc1cc(F)ccc1-c1ncnc(Nc2cccc(C[S@](C)(=N)=O)c2)n1 | -2.6% | -10% | 9.82% | 21.4% | -7.86% | 2.17% | 49.6% | -0.61% |  |  |  |  |  |  |  |  |  |  |
| Cc1nc(-c2ccc(C(F)(F)F)cc2)sc1C(=O)NCc1ccc(OC(C)(C)C(=O)O)cc1 | 6.62% | -7.38% | 20.2% | 17.9% | 62.8% | 5.42% | 53.6% | -7.86% |  |  |  |  |  |  |  |  |  |  |
| COc1cc(Nc2nc(C)cc(-c3cnn4nc(OC)ccc34)n2)cc(C(F)(F)F)c1 | -7.4% | 2.66% | -9.1% | 16.3% | 26.4% | -0.61% | 47.8% | 8.46% |  |  |  |  |  |  |  |  |  |  |
| CC1=C(C#N)C(c2ccc3[nH]nc(C)c3c2)C(C#N)=C(C)N1 | 18.6% | 1.25% | 4.91% | 17.6% | 24.9% | 2.96% | 72.9% | 7.43% |  |  |  |  |  |  |  |  |  |  |
| C[C@H](CCOc1cccc(CC(=O)O)c1)N(Cc1cccc(C(F)(F)F)c1Cl)CC(c1ccccc1)c1ccccc1 | -7.97% |  |  | 19% | 61.9% | 0.574% | 52% | 11.9% | 103% | -4.38% |  |  |  |  |  |  |  |  |
| O=C(NCc1ccccc1)c1ccc(S(=O)(=O)NCc2ccccc2)cc1 | 27.8% |  | 32.2% | 24.3% | -9.13% | 3.04% | 39% | -8.98% |  | -2.64% |  |  |  |  |  |  |  |  |
| CC(C)(O)c1ccc(N2Cc3c(ccnc3-c3ccc(F)cc3OCC(F)(F)F)C2=O)cc1 |  |  |  |  |  |  |  |  |  |  | -6.44% | -2.43% | -3.02% | 2.79% | 55.3% | 3.14% | 51.2% | -1.95% |
| C[C@@H]1CN(c2cc(-c3n[nH]c4ccc(OC5(C)CC5)cc34)ncn2)C[C@H](C)O1 | 9.89% |  | -2.23% | 18% | 64.1% | 3.96% | 98.4% | 2% |  | -1.5% | -7.22% | 12.9% | -2.64% | 23.1% | 12.4% | 7.33% | 48.1% | -1.31% |
| c1ccc(-c2oc3ncnc(NC[C@@H]4CCCO4)c3c2-c2ccccc2)cc1 |  |  |  |  |  |  |  |  |  |  | 3.16% | 6.47% | -7.66% | 21.6% | 18.1% | 4.04% | 35.9% | 7.06% |
| COc1cc(N(C)c2ccnc3ccc(C(F)(F)F)cc23)cc(OC)c1OC | -1.88% |  | 1.25% | 13.4% | 5.39% | 1.59% | 33.1% | 2.18% |  | 4.23% |  |  |  |  |  |  |  |  |
